Laboratory results as given in US7598253B2, “Reverse-turn mimetics and methods relating thereto” (Myriad Genetics, Inc., priority 1995, dated 2009).
Several values for one entry are separate records, joined by “and”; a condition that tells them apart may be missing. Equal entries are not always repeated. Where two headings read alike, the source gives them in different places.

Columns and labels:
[1] = target: opioid receptor (non-selective); experiment: Opiate (non-selective) binding, [3H]naloxone; settings: [3H]naloxone (1 nM), rat cerebral cortex membranes
δ opiate receptor = δ opiate receptor (Cavia porcellus, UniProt A0A286XTF2); experiment: Opiate (δ) binding, [3H]DPDPE competitive radioligand binding; parameters: species or system guinea pig
Sequence of δ opiate receptor (A0A286XTF2 1-366): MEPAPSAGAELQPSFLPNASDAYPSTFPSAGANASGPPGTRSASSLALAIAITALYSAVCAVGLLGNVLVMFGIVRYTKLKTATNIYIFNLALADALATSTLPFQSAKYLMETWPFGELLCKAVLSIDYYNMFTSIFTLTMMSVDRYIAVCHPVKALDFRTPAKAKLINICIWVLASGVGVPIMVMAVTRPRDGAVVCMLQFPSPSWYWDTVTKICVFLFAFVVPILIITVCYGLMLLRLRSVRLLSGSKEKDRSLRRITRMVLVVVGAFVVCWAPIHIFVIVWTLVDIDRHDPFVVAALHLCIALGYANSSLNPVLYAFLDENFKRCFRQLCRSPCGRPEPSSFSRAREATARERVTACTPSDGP

μ opiate receptor = μ opiate receptor (Cavia porcellus, UniProt A0ACM8Q262); experiment: biochemical; type: binding, guinea pig
Sequence of μ opiate receptor (A0ACM8Q262 1-400): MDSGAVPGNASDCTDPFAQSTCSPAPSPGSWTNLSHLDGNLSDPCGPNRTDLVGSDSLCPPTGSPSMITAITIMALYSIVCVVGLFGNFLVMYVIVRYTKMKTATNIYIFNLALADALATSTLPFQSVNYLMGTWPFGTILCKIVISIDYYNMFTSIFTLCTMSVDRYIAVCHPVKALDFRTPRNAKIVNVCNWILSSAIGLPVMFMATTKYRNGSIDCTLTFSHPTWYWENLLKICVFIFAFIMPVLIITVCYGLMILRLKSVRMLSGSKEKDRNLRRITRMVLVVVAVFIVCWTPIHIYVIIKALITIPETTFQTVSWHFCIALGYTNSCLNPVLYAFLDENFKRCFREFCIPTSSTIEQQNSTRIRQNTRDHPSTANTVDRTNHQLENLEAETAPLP

male ICR mice = experiment: In vivo mouse tail flick assay (radiant heat); settings: for % Prolong.: 1 minute post-treatment vs 0 time; for tail flick response time, 1 Min. (single animal) / tail flick response time, 1 Min. (Avg.): 1 minute post-treatment; for tail flick response time, 1 Min. (single animal): cut-off 15 seconds; for tail flick response time, 1 Min. (Avg.) / tail flick response time, 0 Time (Avg.): group mean; for tail flick response time, 0 Time (single animal) / tail flick response time, 0 Time (Avg.): pre-treatment
[2] = reference compounds, [3H]DPDPE bound (2 nM)
[3] = 10 μg/5 μl ICV, listed as Test Compound
[4] = 30 μg/5 μl ICV, listed as Test Compound
[5] = read-out: inhibition of radioligand binding

CCCCCN1C[C@@H]2N(C(=O)OCCc3ccc(O)cc3)CCC(=O)N2[C@@H](CCc2ccccc2)C1=O [Compound 30]
IC50 [1]: 27 nM

C[C@@H](NC(=O)[C@@H](N)Cc1ccc(O)cc1)C(=O)NCC(=O)N(C)[C@@H](Cc1ccccc1)C(=O)NCCO [DAMGO, (D-Ala^2, N-methyl-phe^4, gly-ol^5)-enkephalin]
IC50 (δ opiate receptor): 4800 nM
Ki (δ opiate receptor): 1200 nM
Hill Coefficient (δ opiate receptor; [2]): 1.08
Hill Coefficient (μ opiate receptor): 0.92
IC50 (μ opiate receptor): 6.5 nM
Ki (μ opiate receptor): 0.59 nM

CN1CC[C@]23c4c5ccc(O)c4O[C@H]2[C@@H](O)C=C[C@H]3[C@H]1C5 [Morphine, reference compound]
% Prolong. (male ICR mice; 10 μg/5 μl ICV): 100%
tail flick response time, 1 Min. (single animal) (male ICR mice; 10 μg/5 μl ICV): >15 s
tail flick response time, 1 Min. (Avg.) (male ICR mice; 10 μg/5 μl ICV): Avg. > 15 seconds
tail flick response time, 0 Time (single animal) (male ICR mice; 10 μg/5 μl ICV): 7.5 s and 6.3 s and 7.2 s and 6.8 s
tail flick response time, 0 Time (Avg.) (male ICR mice; 10 μg/5 μl ICV): Avg. = 7.0 seconds

(D-pen^3, D-pen^5) enkephalin [DPDPE]
Hill Coefficient (δ opiate receptor): 0.86
Hill Coefficient (μ opiate receptor): 1.32

Oc1ccc2c3c1O[C@H]1c4[nH]c5ccccc5c4C[C@@]4(O)[C@@H](C2)N(CC2CC2)CC[C@]314 [Naltrindole]
Hill Coefficient (δ opiate receptor; [2]): 0.53
Hill Coefficient (μ opiate receptor): 0.98
IC50 (μ opiate receptor): 27 nM
Ki (μ opiate receptor): 2.5 nM

Oc1ccc2c3c1O[C@H]1c4[nH]c5c(c4C[C@@]4(O)[C@@H](C2)N(CC2CC2)CC[C@]314)C[C@@]1(O)[C@H]2Cc3ccc(O)c4c3[C@@]1(CCN2CC1CC1)[C@H]5O4 [Norbinaltorphimine]
Hill Coefficient (μ opiate receptor): 1.13
IC50 (μ opiate receptor): 280 nM
Ki (μ opiate receptor): 26 nM

C[C@@H](NC(=O)[C@@H](N)Cc1ccc(O)cc1)C(=O)NCC(=O)N(C)[C@@H](Cc1ccccc1)C(=O)NCCO [[^3H]DAMGO]
Kd (μ opiate receptor; read-out: Kd of radioligand): 0.27 nM

O=C1CN2C(=O)CCN(CCc3ccc(O)cc3)C2CN1CCc1ccccc1 (centres unmarked) [Compound 5]
% Prolong. (male ICR mice; 10 μg/5 μl ICV): 6%
tail flick response time, 1 Min. (single animal) (male ICR mice; [3]): 7.5 seconds (2×) and 6.7 seconds and 6.8 seconds
tail flick response time, 1 Min. (Avg.) (male ICR mice; 10 μg/5 μl ICV): Avg. 7.1 seconds
tail flick response time, 0 Time (Avg.) (male ICR mice; 10 μg/5 μl ICV): Avg. = 6.7 seconds
tail flick response time, 0 Time (single animal) (male ICR mice; [3]): 6.5 s and 7.2 s and 6.9 s and 6.2 s
% Prolong. (male ICR mice; 30 μg/5 μl ICV): 63%
tail flick response time, 1 Min. (single animal) (male ICR mice; [4]): >15 seconds (2×) and 7.2 seconds and 6.3 seconds
tail flick response time, 1 Min. (Avg.) (male ICR mice; 30 μg/5 μl ICV): Avg. > 15 seconds
tail flick response time, 0 Time (Avg.) (male ICR mice; 30 μg/5 μl ICV): Avg. = 6.7 seconds
tail flick response time, 0 Time (single animal) (male ICR mice; [4]): 6.5 s and 6.7 s and 7.2 s and 6.3 s
% Prolong. (male ICR mice; 100 μg/5 μl ICV): 100%
tail flick response time, 1 Min. (single animal) (male ICR mice; 100 μg/5 μl ICV): >15 s
tail flick response time, 1 Min. (Avg.) (male ICR mice; 100 μg/5 μl ICV): Avg. > 15 seconds
tail flick response time, 0 Time (Avg.) (male ICR mice; 100 μg/5 μl ICV): Avg. = 6.5 seconds
tail flick response time, 0 Time (single animal) (male ICR mice; 100 μg/5 μl ICV, listed as Test Compound): 6.5 seconds (2×) and 6.3 seconds and 6.8 seconds
analgesic potency relative to morphine (male ICR mice; ICV, tail flick): 10%-15%
IC50 (δ opiate receptor; read-out: IC50): 6900 ± 1200 nM
Ki (δ opiate receptor; read-out: Ki): 1700 ± 300 nM
inhibition at 10 µM (δ opiate receptor; [5]): 60%
IC50 (μ opiate receptor): 5400 ± 700 nM
Ki (μ opiate receptor): 640 ± 80 nM
inhibition at 10 µM (μ opiate receptor; [5]): 64%
